Measured values published in US5190946A, “Methods and compounds” (Hoffmann-La Roche Inc., priority 1990, dated 1993).
Structures can show the parent of a compound that is named as a salt. Where two headings read alike, the source gives them in different places.

Key:
[1] = system: adriamycin-resistant subline (P388/ADR); test: inhibition of growth rate of adriamycin-resistant subline P388/ADR; assay type: cell-based, murine; settings: P388/ADR cells, compound alone, read-out: B: IC50 for the adriamycin-resistant subline (P388/ADR)
From the text: Such cancer cells are characterized by the fact that they are resistant to a large variety of anti-tumour agents and thus become extremely and increasingly difficult to treat. The compounds of formula I, including those described in British Patent Specification No. 883013, and salts thereof lower this resistance and thus greatly increase the effectiveness of drugs conventionally used in chemotherapy. Such properties can be tested according to the method described in Br. J. […] The Table which follows sets forth for a representative number of compounds of formula I B: the IC50 for the adriamycin-resistant subline (P388/ADR); and […]

[2] = toxicity, LD50 i.p. after administration of a single dose to mice; settings: mouse, in vivo, ip, read-out: T: toxicity, LD50
From the text: For some of these compounds, the Table also contains toxicity data ("T", LD50, mg/kg i.p. after administration of a single dose to mice).

[3] = system: P388/ADR cells; test: inhibition of P388/ADR cells in the presence of a subtoxic concentration of adriamycin (restoring drug sensitivity); assay type: cell-based, murine; settings: Mus musculus
From the text: (§1) Such cancer cells are characterized by the fact that they are resistant to a large variety of anti-tumour agents and thus become extremely and increasingly difficult to treat. […] Such properties can be tested according to the method described in Br. J.

[4] = system: P388 murine leukemia cells; test: inhibition of growth rate of P388 cells; assay type: cell-based; settings: Mus musculus
From the text: as §1

[5] = P388/ADR, read-out: C: IC50 for P388/ADR cells, measured in the presence of a subtoxic concentration of adriamycin, P388/ADR cells, with adriamycin 0.2 μM
[6] = P388, read-out: A: concentration for inhibiting the growth rate of P388 cells by 50% (IC50), P388 cells, compound alone
[7] = P388/ADR cells, with adriamycin 0.2 μM, read-out: C: IC50 for P388/ADR cells, measured in the presence of a subtoxic concentration of adriamycin
[8] = P388 cells, compound alone, read-out: A: concentration for inhibiting the growth rate of P388 cells by 50% (IC50)

Row | SMILES | IC50 ([1]; Mus musculus, P388/ADR) | IC50 ([1]; dihydrochloride) | LD50 [2] | IC50 [3, 5] | IC50 [4, 6] | IC50 [3, 7] | IC50 [4, 8]
1 | CCC(C(=O)OCCN1CCN(CCOC(=O)C(CC)c2ccccc2)CC1)c1ccccc1.Cl.Cl (centres unmarked) [Compound 480, N,N'-bis[2-(2-phenyl-2-ethylacetoxy)ethyl]piperazine dihydrochloride] | 60 µM | 45 µM | 100 to 200 mg/kg |  |  |  | 
2 | CCC(C(=O)OCCN1CCN(CCC(=O)Nc2c(C)cccc2C)CC1)c1ccccc1 (centres unmarked) [Compound 1774, 3-[1-(2-Phenyl-2-ethylacetoxy)ethyl-4-piperazino]propion-2,6-dimethylanilide dihydrochloride] | > 60 µM |  | ~200 mg/kg | 1200 nM | > 60 µM |  | 
3 | CCC(C(=O)OCCN1CCN(CCOC(=O)C(CC)c2ccccc2F)CC1)c1ccccc1F (centres unmarked) [Compound 1775, N,N'-bis[2-[2-(2-fluorophenyl)-2-ethylacetoxy]ethyl]piperazine dihydrochloride] | 60 µM |  |  |  |  | 1500 nM | 60 µM
4 | CCC(C(=O)OCCN1CCN(CCOC(=O)C(CC)c2ccccc2C)CC1)c1ccccc1C.Cl.Cl (centres unmarked) [Compound 1776, N,N'-bis[2-[2-(2-methylphenyl)-2-ethylacetoxy]ethyl]piperazine dihydrochloride] | 30 µM |  | 200 to 400 mg/kg | 800 nM | 30 µM |  | 
5 | CCC(C(=O)OCCN1CCN(CCOC(=O)C(CC)c2ccc(F)cc2)CC1)c1ccc(F)cc1 (centres unmarked) [Compound 1777, N,N'-bis[2-[2-(4-fluorophenyl)-2-ethylacetoxy]ethyl]piperazine dihydrochloride] | 60 µM |  |  |  |  | 1200 nM | 60 µM
6 | CCC(C(=O)OCCN1CCN(CCOC(=O)C(CC)c2ccc(Cl)cc2)CC1)c1ccc(Cl)cc1 (centres unmarked) [Compound 1778, N,N'-bis[2-[2-(4-chlorophenyl)-2-ethylacetoxy]ethyl]piperazine dihydrochloride] | 20 µM |  |  |  |  | 1000 nM | 30 µM
7 | CCC(C(=O)OCCN1CCN(CCOC(=O)C(CC)c2ccccc2Cl)CC1)c1ccccc1Cl (centres unmarked) [Compound 1779, N,N'-bis[2-[2-(2-chlorophenyl)-2-ethylacetoxy]ethyl]piperazine dihydrochloride] | 40 µM |  |  |  |  | 1000 nM | 60 µM
8 | CCC(C(=O)OCCN1CCN(CCOC(=O)C(CC)c2ccc(OC)c(OC)c2)CC1)c1ccc(OC)c(OC)c1.Cl.Cl (centres unmarked) [Compound 1835, N,N'-bis[2-[2-(3,4-dimethoxyphenyl)-2-ethylacetoxy]ethyl]piperazine dihydrochloride] | 120 µM |  | ~200 mg/kg | 1200 nM | 120 µM |  | 
9 | CCCC(C(=O)OCCN1CCN(CCOC(=O)C(CCC)c2ccccc2)CC1)c1ccccc1 (centres unmarked) [Compound 1838, N,N'-bis[2-(2-n-propyl-2-phenylacetoxy)ethyl]piperazine] | 20 µM |  | 200 to 400 mg/kg | 200 nM | 20 µM |  | 
10 | O=C(OCCN1CCN(CCOC(=O)C(c2ccccc2)c2ccccc2)CC1)C(c1ccccc1)c1ccccc1 [Compound 1839, N,N'-bis(2-diphenylacetoxyethyl)piperazine] | > 60 µM |  | 200 to 400 mg/kg | 200 nM | > 60 µM |  | 
11 | CCC(C(=O)OCCCN1CCN(CCCOC(=O)C(CC)c2ccccc2)CC1)c1ccccc1 (centres unmarked) [Compound 1843, N,N'-bis[3-(2-phenyl-2-ethylacetoxy)propyl]piperazine] | 8 µM |  |  |  |  | 450 nM | 7 µM
12 | CCCCC(C(=O)OCCN1CCN(CCOC(=O)C(CCCC)c2ccc(OC)c(OC)c2)CC1)c1ccc(OC)c(OC)c1 (centres unmarked) [Compound 1849, N,N'-bis[2-[2-n-butyl-2-(3,4-dimethoxyphenyl)acetoxy]ethyl]piperazine dihydrochloride] | 10 µM |  |  |  |  | 200 nM | 12 µM
13 | CCCC(C(=O)OCCN1CCN(CCOC(=O)C(CCC)c2ccc(OC)c(OC)c2)CC1)c1ccc(OC)c(OC)c1 (centres unmarked) [Compound 1850, N,N'-bis[2-[2-(3,4-dimethoxyphenyl)-2-propylacetoxy]ethyl]piperazine dihydrochloride] | 20 µM |  |  |  |  | 200 nM | 20 µM
14 | Cc1cccc(C)c1NC(=O)CCN1CCN(CCOC(=O)C(c2ccccc2)c2ccccc2)CC1 [Compound 1853, 3-[1-(2-diphenylacetoxyethyl)-4-piperazino]propion-2,6-dimethylanilide dihydrochloride] | 60 µM |  |  |  |  | 1200 nM | 60 µM
15 | CC(C(=O)OCCN1CCN(CCOC(=O)C(C)(c2ccccc2)c2ccccc2)CC1)(c1ccccc1)c1ccccc1 [Compound 1854, N,N'-bis[2-(2,2-diphenyl-2-methylacetoxy)ethyl]piperazine dihydrochloride] | 45 µM |  |  |  |  | 200 nM | 20 µM
